pIC50: −log10 of the molar value.
These molecules were tested against T1, c-Met kinase (recombinant c-Met) (Homo sapiens, UniProt P08581) (assay: In vitro kinase assay I (homogeneous time-resolved fluorescence tyrosine kinase assay)).
T1 construct: 0.27 nM recombinant c-Met
T1 sequence (P08581 25-1390): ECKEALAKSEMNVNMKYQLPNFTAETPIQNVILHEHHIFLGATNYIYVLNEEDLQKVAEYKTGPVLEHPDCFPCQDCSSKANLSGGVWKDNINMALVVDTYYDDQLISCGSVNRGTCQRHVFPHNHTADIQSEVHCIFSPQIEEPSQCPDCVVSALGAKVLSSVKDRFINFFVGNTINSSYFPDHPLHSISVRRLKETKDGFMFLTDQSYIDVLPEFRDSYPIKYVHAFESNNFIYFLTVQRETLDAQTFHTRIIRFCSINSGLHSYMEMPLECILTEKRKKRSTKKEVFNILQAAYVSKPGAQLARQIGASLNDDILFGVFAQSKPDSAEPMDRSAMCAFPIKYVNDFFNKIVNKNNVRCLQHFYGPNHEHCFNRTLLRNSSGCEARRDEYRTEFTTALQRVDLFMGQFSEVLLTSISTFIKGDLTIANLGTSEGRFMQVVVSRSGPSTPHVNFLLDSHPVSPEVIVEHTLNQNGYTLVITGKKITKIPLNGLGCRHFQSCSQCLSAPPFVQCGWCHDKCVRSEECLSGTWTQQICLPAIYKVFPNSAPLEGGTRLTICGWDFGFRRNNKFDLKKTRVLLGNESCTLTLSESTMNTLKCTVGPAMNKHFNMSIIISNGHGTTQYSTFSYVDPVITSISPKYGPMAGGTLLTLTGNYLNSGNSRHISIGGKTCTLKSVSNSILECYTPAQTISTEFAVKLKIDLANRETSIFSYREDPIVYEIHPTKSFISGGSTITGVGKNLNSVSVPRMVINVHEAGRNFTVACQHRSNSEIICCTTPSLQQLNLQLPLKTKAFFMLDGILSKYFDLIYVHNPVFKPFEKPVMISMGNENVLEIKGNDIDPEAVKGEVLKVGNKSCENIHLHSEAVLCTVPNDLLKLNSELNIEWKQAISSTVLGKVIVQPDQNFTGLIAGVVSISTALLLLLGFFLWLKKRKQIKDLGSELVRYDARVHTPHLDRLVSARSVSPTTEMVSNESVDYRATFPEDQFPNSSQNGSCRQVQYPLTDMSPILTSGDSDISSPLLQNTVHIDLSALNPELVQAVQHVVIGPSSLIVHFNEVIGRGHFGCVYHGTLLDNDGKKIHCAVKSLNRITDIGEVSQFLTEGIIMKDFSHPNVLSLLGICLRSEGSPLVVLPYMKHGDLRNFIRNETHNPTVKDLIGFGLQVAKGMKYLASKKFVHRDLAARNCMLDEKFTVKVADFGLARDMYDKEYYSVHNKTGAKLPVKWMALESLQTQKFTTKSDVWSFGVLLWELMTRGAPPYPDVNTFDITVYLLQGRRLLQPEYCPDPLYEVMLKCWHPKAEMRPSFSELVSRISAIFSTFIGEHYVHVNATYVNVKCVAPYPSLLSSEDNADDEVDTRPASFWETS
Assay type: biochemical
In short: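 Biotinylated peptide (0.5 μM) phosphorylated by 0.2 nM recombinant c-Met with 50 μM MgATP, 60 min at room temperature, pH 7.4, 5% DMSO. EDTA stop; HTRF read with Eu-anti-phosphotyrosine antibody and streptavidin-APC. IC50 from 4-parameter logistic fit.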
`CN(C)CCCc1cnc(-c2cccc(Cc3nn(-c4cnn(C)c4)ccc3=O)c2)nc1` [Example 438, 3-(3-{5-[3-(dimethylamino)propyl]pyrimidin-2-yl}benzyl)-1-(1-methyl-1H-pyrazol-4-yl)pyridazin-4(1H)-one] showed a pIC50 of over 7.00.
In the case of `CC(C)COC(=O)Nc1cccc(Cc2nn(-c3ccc(-c4ccncc4)cc3)ccc2=O)c1` [Example 728, 2-methylpropyl (3-({4-oxo-1-(4-(pyridin-4-yl)phenyl)-1,4-dihydropyridazin-3-yl}methyl}phenyl) carbamate], the pIC50 was over 7.00.
`CC(C)COC(=O)Nc1cccc(Cc2nn(-c3cnn(CC(F)(F)F)c3)ccc2=O)c1` [Example 93, 2-methylpropyl [3-({4-oxo-1-[1-(2,2,2-trifluoroethyl)-1H-pyrazol-4-yl]-1,4-dihydropyridazin-3-yl}methyl)phenyl]carbamate] gave a pIC50 of over 7.00.
Molecule `Cn1cc(-n2ccc(=O)c(Cc3cccc(-c4ncc(OC(F)F)cn4)c3)n2)cn1` [Example 386, 3-{3-[5-(Difluoromethoxy)pyrimidin-2-yl]benzyl}-1-(1-methyl-1H-pyrazol-4-yl)pyridazin-4(1H)-one] has a pIC50 of over 7.00.
`O=c1ccn(-c2ccc(F)c(F)c2)nc1Cc1cccc(-c2ncc(OCC3CCOC3)cn2)c1` (single isomer, unassigned) [Example 352, 1-(3,4-difluorophenyl)-3-(3-{5-[(3S or R)-tetrahydrofuran-3-ylmethoxy]pyrimidin-2-yl}benzyl)pyridazin-4(1H)-one] gave a pIC50 of over 7.00.
`CCCOC(=O)Nc1cccc(Cc2nn(-c3cnn(CCO)c3)ccc2=O)c1` [Example 644, propyl [3-({1-[1-(2-hydroxyethyl)-1H-pyrazol-4-yl]-4-oxo-1,4-dihydropyridazin-3-yl}methyl)phenyl] carbamate] was tested, and the pIC50 was over 7.00.
Work on `C/C=C/c1cnc(-c2cccc(Cc3nn(-c4cnn(C)c4)ccc3=O)c2)nc1` [Example 400, 1-(1-methyl-1H-pyrazol-4-yl)-3-(3-{5-[(1E)-prop-1-en-1-yl]pyrimidin-2-yl}benzyl)pyridazin-4(1H)-one] yielded a pIC50 of over 7.00.
Molecule `COCCOc1cnc(-c2cccc(Cc3nn(-c4cnn(C)c4)ccc3=O)c2)nc1` [Example 4, 3-{3-[5-(2-Methoxyethoxy)pyrimidin-2-yl]benzyl}-1-(1-methyl-1H-pyrazol-4-yl)pyridazin-4(1H)-one] has a pIC50 of over 7.00.
With `Cn1cc(-n2ccc(=O)c(Cc3cccc(-c4ncc(OCc5noc(C6CC6)n5)cn4)c3)n2)cn1` [Example 282, 3-(3-{5-[(5-cyclopropyl-1,2,4-oxadiazol-3-yl)methoxy]pyrimidin-2-yl}benzyl)-1-(1-methyl-1H-pyrazol-4-yl)pyridazin-4(1H)-one] the pIC50 was over 7.00.
With `Cn1cc(-n2ccc(=O)c(Cc3cccc(-c4ncc(C(=O)NCCCN5CCOCC5)cn4)c3)n2)cn1` [Example 482, 2-(3-{[1-(1-methyl-1H-pyrazol-4-yl)-4-oxo-1,4-dihydro-pyridazin-3-yl]methyl}phenyl)-N-(3-morpholin-4-ylpropyl)pyrimidine-5-carboxamide] the pIC50 was over 7.00.
Molecule `CC(C)Cn1cc(-n2ccc(=O)c(Cc3cccc(NC(=O)OCCN4CCOCC4)c3)n2)cn1` [Example 96, 2-morpholin-4-ylethyl [3-({1-[1-(2-methylpropyl)-1H-pyrazol-4-yl]-4-oxo-1,4-dihydropyridazin-3-yl}methyl)phenyl]carbamate] has a pIC50 of 6.00 to 7.00.
Molecule `Cn1cc(-n2ccc(=O)c(Cc3cccc(NC(=O)OCCN4CCCC4=O)c3)n2)cn1` [Example 533, 2-(2-oxopyrrolidin-1-yl)ethyl (3-{[1-(1-methyl-1H-pyrazol-4-yl)-4-oxo-1,4-dihydropyridazin-3-yl]methyl}phenyl)carbamate] has a pIC50 of over 7.00.
`CN(C)C(=O)CCOC(=O)Nc1cccc(Cc2nn(-c3cc(F)cc(F)c3)ccc2=O)c1` [Example 589, 3-(dimethylamino)-3-oxopropyl (3-{[1-(3,5-difluorophenyl)-4-oxo-1,4-dihydropyridazin-3-yl]methyl}phenyl)carbamate] showed a pIC50 of over 7.00.
`CCCOC(=O)Nc1cccc(Cc2nn(-c3cccc(Br)c3)ccc2=O)c1` [Example 12, propyl (3-{[1-(3-bromophenyl)-4-oxo-1,4-dihydropyridazin-3-yl]methyl}phenyl)carbamate] was tested, and the pIC50 was over 7.00.
For `Cn1cc(-n2ccc(=O)c(Cc3cccc(-c4ncc(-c5ccc(N)nc5)cn4)c3)n2)cn1` [Example 419, 3-{3-[5-(6-aminopyridin-3-yl)pyrimidin-2-yl]benzyl}-1-(1-methyl-1H-pyrazol-4-yl)pyridazin-4(1H)-one], the pIC50 was over 7.00.
Molecule `Cn1cc(-n2ccc(=O)c(Cc3cccc(NC(=O)OCC4CCCOC4)c3)n2)cn1` (racemic) [Example 569, rac-tetrahydro-2H-pyran-3-ylmethyl (3-{[1-(1-methyl-1H-pyrazol-4-yl)-4-oxo-1,4-dihydropyridazin-3-yl]methyl}phenyl)carbamate] has a pIC50 of over 7.00.
`CCOc1cnc(-c2cccc(Cc3nn(-c4cccc(Br)c4)ccc3=O)c2)nc1` [Example 143, 1-(3-bromophenyl)-3-[3-(5-ethoxypyrimidin-2-yl)benzyl]pyridazin-4(1H)-one] was tested, and the pIC50 was over 7.00.
For `CCOc1cnc(-c2cccc(C(C)c3nn(-c4cnn(C)c4)ccc3=O)c2)nc1` (single isomer, unassigned) [Example 202, 3-{(1R or S)-1-[3-(5-ethoxypyrimidin-2-yl)phenyl]ethyl}-1-(1-methyl-1H-pyrazol-4-yl)pyridazin-4(1H)-one], the pIC50 was over 7.00.
`COCCOC(=O)Nc1cccc(Cc2nn(-c3cc(F)cc(C(N)=O)c3)ccc2=O)c1` [Example 737, 2-methoxyethyl [3-({1-[3-(aminocarbonyl)-5-fluorophenyl]-4-oxo-1,4-dihydropyridazin-3-yl}methyl)phenyl] carbamate] showed a pIC50 of over 7.00.
`CC(C)COC(=O)Nc1cccc(Cc2nn(-c3cc(F)cc(F)c3)ccc2=O)c1` [Example 17, 2-methylpropyl (3-{[1-(3,5-difluorophenyl)-4-oxo-1,4-dihydropyridazin-3-yl]methyl}phenyl)carbamate] was tested, and the pIC50 was over 7.00.
`Cn1cc(-n2ccc(=O)c(Cc3cccc(-c4ncc(N5CCC(O)C5)cn4)c3)n2)cn1` (racemic) [Example 440, rac-3-{3-[5-(3-Hydroxypyrrolidin-1-yl)pyrimidin-2-yl]benzyl}-1-(1-methy 1H-pyrazol-4-yl)pyridazin-4(1H)-one] gave a pIC50 of over 7.00.
`CCOC(=O)Nc1cccc(Cc2nn(-c3cnn(CC(C)C)c3)ccc2=O)c1` [Example 92, ethyl [3-({1-[1-(2-methylpropyl)-1H-pyrazol-4-yl]-4-oxo-1,4-dihydropyridazin-3-yl}methyl)phenyl]carbamate] gave a pIC50 of 6.00 to 7.00.
`CCn1cc(-n2ccc(=O)c(C(C)c3cccc(-c4ncc(O)cn4)c3)n2)cn1` (single isomer, unassigned) [Example 257, 1-(1-ethyl-1H-pyrazol-4-yl)-3-{(1S or R)-1-[3-(5-hydroxypyrimidin-2-yl)phenyl]ethyl}pyridazin-4(1H)-one] was tested, and the pIC50 was 5.52 to 6.00.
`CCn1cnc(-c2cccc(Cc3nn(-c4cnn(CCO)c4)ccc3=O)c2)n1` [Example 191, 3-[3-(1-Ethyl-1H-1,2,4-triazol-3-yl)benzyl]-1-[1-(2-hydroxyethyl)-1H-pyrazol-4-yl]pyridazin-4(1H)-one] was tested, and the pIC50 was over 7.00.
For `Cn1cc(-n2ccc(=O)c(Cc3cccc(-c4ncn(CC5CCOC5)n4)c3)n2)cn1` (racemic) [Example 79, rac-1-(1-methyl-1H-pyrazol-4-yl)-3-{3-[1-(tetrahydrofuran-3-ylmethyl)-1H-1,2,4-triazol-3-yl]benzyl}pyridazin-4(1H)-one], the pIC50 was over 7.00.
`CCOc1cnc(-c2cccc(Cc3nn(-c4cccc(C(=O)N(C)C)c4)ccc3=O)c2)nc1` [Example 726, 3-{3-[3-(5-Ethoxypyrimidin-2-yl)benzyl]-4-oxopyridazin-1(4H)-yl}-N,N-dimethylbenzamide] was tested, and the pIC50 was 6.00 to 7.00.
With `Cn1cc(-n2ccc(=O)c(Cc3cccc(CC(N)=O)c3)n2)cn1` [Example 48, 2-(3-{[1-(1-methyl-1H-pyrazol-4-yl)-4-oxo-1,4-dihydropyridazin-3-yl]methyl}phenyl)acetamide] the pIC50 was 5.52 to 6.00.
For `Cn1cc(-n2ccc(=O)c(Cc3cccc(-c4ncc(CCc5ccccc5)cn4)c3)n2)cn1` [Example 397, 1-(1-methyl-1H-pyrazol-4-yl)-3-{3-[5-(2-phenylethyl)pyrimidin-2-yl]benzyl}pyridazin-4(1H)-one], the pIC50 was over 7.00.
`O=C(Nc1cccc(Cc2nn(-c3cc(F)c(F)c(F)c3)ccc2=O)c1)OCCn1ccnc1` [Example 547, 2-(1H-imidazol-1-yl)ethyl (3-{[4-oxo-1-(3,4,5-trifluorophenyl)-1,4-dihydropyridazin-3-yl]methyl}phenyl)carbamate] gave a pIC50 of over 7.00.
`CCn1cc(-n2ccc(=O)c(Cc3cccc(NC(=O)OCCOC)c3)n2)cn1` [Example 70, 2-methoxyethyl (3-{[1-(1-ethyl-1H-pyrazol-4-yl)-4-oxo-1,4-dihydropyridazin-3-yl]methyl}phenyl)carbamate] gave a pIC50 of over 7.00.
`CC1(COC(=O)Nc2cccc(Cc3nn(-c4cc(F)c(F)c(F)c4)ccc3=O)c2)COC1` [Example 560, (3-methyloxetan-3-yl)methyl (3-{[4-oxo-1-(3,4,5-trifluorophenyl)-1,4-dihydropyridazin-3-yl]methyl}phenyl)carbamate] was tested, and the pIC50 was over 7.00.
`CN1CCC(COc2cnc(-c3cccc(Cc4nn(-c5cc(F)cc(F)c5)ccc4=O)c3)nc2)CC1` [Example 173, 1-(3,5-difluorophenyl)-3-(3-{5-[(1-methylpiperidin-4-yl)methoxy]pyrimidin-2-yl}benzyl)pyridazin-4(1H)-one] showed a pIC50 of over 7.00.
Molecule `Cn1cc(-n2ccc(=O)c(Cc3cccc(-c4ncc(N5CCOCC5)cn4)c3)n2)cn1` [Example 472, 1-(1-methyl-1H-pyrazol-4-yl)-3-[3-(5-morpholin-4-ylpyrimidin-2-yl)benzyl]pyridazin-4(1H)-one] has a pIC50 of over 7.00.
With `Cn1cc(-n2ccc(=O)c(Cc3cccc(NC(=O)OCCC4CCNCC4)c3)n2)cn1` [Example 624, 2-piperidin-4-ylethyl (3-{[1-(1-methyl-1H-pyrazol-4-yl)-4-oxo-1,4-dihydropyridazin-3-yl]methyl}phenyl)carbamate] the pIC50 was over 7.00.

Reference: patent US20120264735A1 (priority 2009, published 2012)
